# Results published in patent US20260007681A1, “INDOLE DERIVATIVES AS ESTROGEN RECEPTOR DEGRADERS” (REGENTS OF THE UNIVERSITY OF MICHIGAN, priority 2022, published 2026).
# Like-named read-outs stand apart in the source and are kept apart here.
# Key:
# [1] = target: ER (Homo sapiens (Human), UniProt P03372); experiment: In-cell western blot analysis of relative ER percentage (Compounds B1-B278); assay type: cell-based; details: ER degradation, 16 hours, read-out: ICW DC50
# Method in brief: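 Cells seeded at 40,000 or 10,000 cells/well and treated with compound (final 0.5% DMSO) for 16 h, then formaldehyde-fixed, Triton-permeabilized and co-stained for ER and GAPDH with 680/800 secondaries; LI-COR plate read. ER level expressed relative to untreated/DMSO-treated wells set at 100%.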
# [2] = Cell growth assay (WST-8) (Compounds B1-B278); assay type: cell-based; details: T47D cell line, WST-8, 4 days, read-out: Cell Growth Inhibition in T47D cell line IC50
# Method in brief: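 Cells seeded at 1500/well overnight, treated one day later with compound doses for 4 days, then 10% WST-8 added for 2.5 h at 37° C in CO2. Absorbance at 450 nm, expressed relative to vehicle control over three independent repeats.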
# ER, sequence (P03372 whole entry): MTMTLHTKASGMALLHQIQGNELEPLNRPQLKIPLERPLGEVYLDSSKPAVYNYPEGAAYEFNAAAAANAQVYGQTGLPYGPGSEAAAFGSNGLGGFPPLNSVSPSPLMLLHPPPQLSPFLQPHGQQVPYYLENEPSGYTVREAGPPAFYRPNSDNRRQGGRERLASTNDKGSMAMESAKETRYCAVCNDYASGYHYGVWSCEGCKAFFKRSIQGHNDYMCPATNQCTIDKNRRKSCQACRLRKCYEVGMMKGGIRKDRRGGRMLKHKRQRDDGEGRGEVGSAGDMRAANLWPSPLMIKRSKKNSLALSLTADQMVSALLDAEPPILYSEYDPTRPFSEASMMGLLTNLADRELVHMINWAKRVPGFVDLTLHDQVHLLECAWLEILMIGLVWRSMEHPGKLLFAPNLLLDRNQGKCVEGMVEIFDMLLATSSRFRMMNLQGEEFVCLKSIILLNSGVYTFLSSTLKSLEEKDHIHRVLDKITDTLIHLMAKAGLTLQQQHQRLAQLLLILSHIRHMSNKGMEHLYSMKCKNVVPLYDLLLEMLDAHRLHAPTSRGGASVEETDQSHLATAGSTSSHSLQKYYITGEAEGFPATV
smiles,measurement,setting,value
"COc1cc(N2CCC3(CC2)CC(CN2CCN4c5ccc6c(c5OC[C@H]4C2)CN(C2CCC(=O)NC2=O)C6=O)CO3)ccc1[C@@H]1c2[nH]c3ccccc3c2C[C@@H](C)N1CC(F)F (stereo partly drawn) [Compound B144, (3S)-3-((5aR)-7-((8-(4-((1R,3R)-2-(2,2-difluoroethyl)-3-methyl-2,3,4,9-tetrahydro-1H-pyrido[3,4-b]indol-1-yl)-3-methoxyphenyl)-1-oxa-8-azaspiro[4.5]dccan-3-yl)methyl)-1-oxo-1,3,5,5a,6,7,8,9-octahydro-2H-pyrazino[1′,2′:4,5][1,4]oxazino[2,3-e]isoindol-2-yl)piperidine-2,6-dione]",DC50,[1],< 10 nM
same,IC50,[2],< 1 nM
"C[C@@H]1Cc2c([nH]c3ccccc23)[C@@H](c2ccc(N3CCC4(CC3)CC(CN3CCC5(CC3)COc3c5ccc5c3CN(C3CCC(=O)NC3=O)C5=O)CO4)cn2)N1CC(F)(F)F (stereo partly drawn) [Compound B145, 3-(1′-((8-(6-((1S,3R)-3-methyl-2-(2,2,2-trifluoroethyl)-2,3,4,9-tetrahydro-1H-pyrido[3,4-b]indol-1-yl)pyridin-3-yl)-1-oxa-8-azaspiro[4.5]decan-3-yl)methyl)-6-oxo-6,8-dihydro-2H,7H-spiro[furo[2,3-e]isoindole-3,4′-piperidin]-7-yl)piperidine-2,6-dionc]",DC50,[1],< 10 nM
same,IC50,[2]; 96 h,< 1 nM
"C[C@@H]1Cc2c([nH]c3ccccc23)[C@@H](c2ccc(N3CCC4(CC3)CC(CN3CCN5c6ccc7c(c6OC[C@H]5C3)CN([C@H]3CCC(=O)NC3=O)C7=O)CO4)cn2)N1CC(F)(F)F (stereo partly drawn) [Compound B146, (3S)-3-((5aR)-7-((8-(6-((1S,3R)-3-methyl-2-(2,2,2-trifluoroethyl)-2,3,4,9-tetrahydro-1H-pyrido[3,4-b]indol-1-yl)pyridin-3-yl)-1-oxa-8-azaspiro[4.5]decan-3-yl)methyl)-1-oxo-1,3,5,5a,6,7,8,9-octahydro-2H-pyrazino[1′,2′:4,5][1,4]oxazino[2,3-e]isoindol-2-yl)piperidine-2,6-dione]",DC50,[1],10 to 100 nM
same,IC50,[2]; 96 h,1 to 10 nM
"C[C@@H]1Cc2c([nH]c3ccccc23)[C@@H](c2ccc(N3CCC4(CC3)CC(CN3CCN5c6cc7c(cc6OC[C@@H]5C3)C(=O)N(C3CCC(=O)NC3=O)C7)CO4)cn2)N1CC(F)(F)F (stereo partly drawn) [Compound B147, 3-((4aS)-3-((8-(6-((1S,3R)-3-methyl-2-(2,2,2-trifluoroethyl)-2,3,4,9-tetrahydro-1H-pyrido[3,4-b]indol-1-yl)pyridin-3-yl)-1-oxa-8-azaspiro[4.5]dccan-3-yl)methyl)-8-oxo-1,2,3,4,4a,5,8,10-octahydro-9H-pyrazino[1′,2′:4,5][1,4]oxazino[2,3-f]isoindol-9-yl)piperidine-2,6-dione]",DC50,[1],10 to 100 nM
same,IC50,[2]; 96 h,1 to 10 nM
"C[C@@H]1Cc2c([nH]c3ccccc23)[C@@H](c2c(F)cc(N3CCC(CN4CCN5c6ccc7c(c6OC[C@H]5C4)CN(C4CCC(=O)NC4=O)C7=O)CC3)cc2F)N1CC(F)(F)CO (stereo partly drawn) [Compound B148, 3-((R)-7-((1-(4-((1R,3R)-2-(2,2-difluoro-3-hydroxypropyl)-3-methyl-2,3,4,9-tetrahydro-1H-pyrido[3,4-b]indol-1-yl)-3,5-difluorophenyl)piperidin-4-yl)methyl)-1-oxo-1,3,5,5a,6,7,8,9-octahydro-2H-pyrazino[1′,2′:4,5][1,4]oxazino[2,3-e]isoindol-2-yl)piperidine-2,6-dione]",DC50,[1],> 100 nM
same,IC50,[2]; 96 h,< 1 nM
"C[C@@H]1Cc2c([nH]c3ccccc23)[C@@H](c2c(F)cc(N3CC[C@@H](CN4CCN5c6ccc7c(c6OC[C@H]5C4)CN(C4CCC(=O)NC4=O)C7=O)C3)cc2F)N1CC(F)(F)CO (stereo partly drawn) [Compound B149, 3-((R)-7-(((S)-1-(4-((1R,3R)-2-(2,2-difluoro-3-hydroxypropyl)-3-methyl-2,3,4,9-tetrahydro-1H-pyrido[3,4-b]indol-1-yl)-3,5-difluorophenyl)pyrrolidin-3-yl)methyl)-1-oxo-1,3,5,5a,6,7,8,9-octahydro-2H-pyrazino[1′,2′:4,5][1,4]oxazino[2,3-e]isoindol-2-yl)piperidine-2,6-dione]",DC50,[1],> 100 nM
same,IC50,[2]; 96 h,1 to 10 nM
"C[C@@H]1Cc2c([nH]c3ccccc23)[C@@H](c2c(F)cc(N3CC[C@H](CN4CCN5c6ccc7c(c6OC[C@H]5C4)CN(C4CCC(=O)NC4=O)C7=O)C3)cc2F)N1CC(F)(F)CO (stereo partly drawn) [Compound B150, 3-((R)-7-(((R)-1-(4-((1R,3R)-2-(2,2-difluoro-3-hydroxypropyl)-3-methyl-2,3,4,9-tetrahydro-1H-pyrido[3,4-b]indol-1-yl)-3,5-difluorophenyl)pyrrolidin-3-yl)methyl)-1-oxo-1,3,5,5a,6,7,8,9-octahydro-2H-pyrazino[1′,2′:4,5][1,4]oxazino[2,3-e]isoindol-2-yl)piperidine-2,6-dione]",DC50,[1],10 to 100 nM
same,IC50,[2]; 96 h,1 to 10 nM
"C[C@@H]1Cc2c([nH]c3ccccc23)[C@@H](c2c(F)cc(N3CCN(C(=O)CN4CCN5c6ccc7c(c6OC[C@H]5C4)CN(C4CCC(=O)NC4=O)C7=O)CC3)cc2F)N1CC(F)F (stereo partly drawn) [Compound B151, 3-((R)-7-(2-(4-(4-((1R,3R)-2-(2,2-difluoroethyl)-3-methyl-2,3,4,9-tetrahydro-1H-pyrido[3,4-b]indol-1-yl)-3,5-difluorophenyl)piperazin-1-yl)-2-oxoethyl)-1-oxo-1,3,5,5a,6,7,8,9-octahydro-2H-pyrazino[1′,2′:4,5][1,4]oxazino[2,3-e]isoindol-2-yl)piperidine-2,6-dione]",DC50,[1],> 100 nM
same,IC50,[2]; 96 h,< 1 nM
"C[C@@H]1Cc2c([nH]c3ccccc23)[C@@H](c2cnc(N3CCC4(CC3)CC(CN3CCN5c6ccc7c(c6OC[C@H]5C3)CN(C3CCC(=O)NC3=O)C7=O)C4)nc2)N1CC(F)(F)CO (stereo partly drawn) [Compound B153, 3-((R)-7-((7-(5-((1R,3R)-2-(2,2-difluoro-3-hydroxypropyl)-3-methyl-2,3,4,9-tetrahydro-1H-pyrido[3,4-b]indol-1-yl)pyrimidin-2-yl)-7-azaspiro[3.5]nonan-2-yl)methyl)-1-oxo-1,3,5,5a,6,7,8,9-octahydro-2H-pyrazino[1′,2′:4,5][1,4]oxazino[2,3-e]isoindol-2-yl)piperidine-2,6-dione]",DC50,[1],10 to 100 nM
same,IC50,[2]; 96 h,1 to 10 nM
"C[C@@H]1Cc2c([nH]c3ccccc23)[C@@H](c2cnc(N3CC4(CCC(CN5CCN6c7ccc8c(c7OC[C@H]6C5)CN(C5CCC(=O)NC5=O)C8=O)CC4)C3)nc2)N1CC(F)(F)CO (stereo partly drawn) [Compound B154, 3-((R)-7-((2-(5-((1R,3R)-2-(2,2-difluoro-3-hydroxypropyl)-3-methyl-2,3,4,9-tetrahydro-1H-pyrido[3,4-b]indol-1-yl)pyrimidin-2-yl)-2-azaspiro[3.5]nonan-7-yl)methyl)-1-oxo-1,3,5,5a,6,7,8,9-octahydro-2H-pyrazino[1′,2′:4,5][1,4]oxazino[2,3-e]isoindol-2-yl)piperidine-2,6-dione]",DC50,[1],10 to 100 nM
same,IC50,[2]; 96 h,1 to 10 nM
"C[C@@H]1Cc2c([nH]c3ccccc23)[C@@H](c2cnc(N3CCC4(CC3)CC(N3CCN5c6ccc7c(c6OC[C@H]5C3)CN(C3CCC(=O)NC3=O)C7=O)C4)nc2)N1CC(F)F (stereo partly drawn) [Compound B155, 3-((R)-7-(7-(5-((1R,3R)-2-(2,2-difluoroethyl)-3-methyl-2,3,4,9-tetrahydro-1H-pyrido[3,4-b]indol-1-yl)pyrimidin-2-yl)-7-azaspiro[3.5]nonan-2-yl)-1-oxo-1,3,5,5a,6,7,8,9-octahydro-2H-pyrazino[1′,2′:4,5][1,4]oxazino[2,3-e]isoindol-2-yl)piperidine-2,6-dione]",DC50,[1],> 100 nM
same,IC50,[2]; 96 h,1 to 10 nM
"C[C@@H]1Cc2c([nH]c3ccccc23)[C@@H](c2cnc(N3CC4(CCC(N5CCN6c7ccc8c(c7OC[C@H]6C5)CN(C5CCC(=O)NC5=O)C8=O)CC4)C3)nc2)N1CC(F)F (stereo partly drawn) [Compound B156, 3-((R)-7-(2-(5-((1R,3R)-2-(2,2-difluoroethyl)-3-methyl-2,3,4,9-tetrahydro-1H-pyrido[3,4-b]indol-1-yl)pyrimidin-2-yl)-2-azaspiro[3.5]nonan-7-yl)-1-oxo-1,3,5,5a,6,7,8,9-octahydro-2H-pyrazino[1′,2′:4,5][1,4]oxazino[2,3-e]isoindol-2-yl)piperidine-2,6-dione]",DC50,[1],> 100 nM
same,IC50,[2]; 96 h,> 10 nM
"C[C@@H]1Cc2c([nH]c3ccccc23)[C@@H](c2cnc(N3CCC4(CC(CN5CCN6c7ccc8c(c7OC[C@H]6C5)CN(C5CCC(=O)NC5=O)C8=O)C4)C3)nc2)N1CC(F)F (stereo partly drawn) [Compound B157, 3-((R)-7-((6-(5-((1R,3R)-2-(2,2-difluoroethyl)-3-methyl-2,3,4,9-tetrahydro-1H-pyrido[3,4-b]indol-1-yl)pyrimidin-2-yl)-6-azaspiro[3.4]octan-2-yl)methyl)-1-oxo-1,3,5,5a,6,7,8,9-octahydro-2H-pyrazino[1′,2′:4,5][1,4]oxazino[2,3-e]isoindol-2-yl)piperidine-2,6-dione]",DC50,[1],> 100 nM
same,IC50,[2]; 96 h,1 to 10 nM
"C[C@@H]1Cc2c([nH]c3ccccc23)[C@@H](c2cnc(N3CC4(CCC(N5CCN6c7ccc8c(c7OC[C@H]6C5)CN(C5CCC(=O)NC5=O)C8=O)CC4)C3)nc2)N1CC(F)(F)CO (stereo partly drawn) [Compound B158, 3-((R)-7-(2-(5-((1R,3R)-2-(2,2-difluoro-3-hydroxypropyl)-3-methyl-2,3,4,9-tetrahydro-1H-pyrido[3,4-b]indol-1-yl)pyrimidin-2-yl)-2-azaspiro[3.5]nonan-7-yl)-1-oxo-1,3,5,5a,6,7,8,9-octahydro-2H-pyrazino[1′,2′:4,5][1,4]oxazino[2,3-e]isoindol-2-yl)piperidine-2,6-dione]",DC50,[1],> 100 nM
same,IC50,[2]; 96 h,< 1 nM
